These results are taken from US20240173401A1, “Compositions and Methods to Enhance Therapeutic Efficacy of Cancer Therapies” (Wisconsin Alumni Research Foundation, priority 2022, published 2024).

One assay has as its system B cells. The experiment in a line: B cells cultured in vitro, activation markers by qPCR. The assay is classed as cell-based, mouse. The protocol: FIGS. 6A-6F. Radiation downregulates TLR4 expression on macrophages and MHC-IT expression on B16 tumor cells and cytotoxic CD4 cells are not generated by combination therapy but B cells are modestly activated with radiation but not MPL or serum. Macrophages cultured in vitro were treated with PBS, anti-CTLA-4 (C4, 5 μg), radiation (RT, 12 Gy) or RT+C4 and expression of TLR4 was quantified using flow cytometry 24 hours following treatment (6A). B16 melanoma cells cultured in vitro were treated with PBS or radiation (RT, 12 Gy) and expression of MHC-II was quantified using flow cytometry 3 days following treatment (6B). B16 tumors were treated with PBS or RT+C4+MPL and expression of MHC-II was quantified using flow cytometry 15 days following treatment (6C). CD4 cells were also harvested and co-cultured with B16 cells that had received either 0 Gy or 12 Gy of RT 7 days prior to coculture and tumor cell killing was quantified using Annexin V staining (6D). B cells cultured in vitro were treated with either PBS, MPL (100 μg), serum from disease free mice, or MPL+serum and activation markers were quantified using qPCR (6E). B cells cultured in vitro were treated with either PBS, C4 (5 μg), RT (12 Gy), or RT+C4 and activation markers were quantified using qPCR (6F). […]
A general note: Real-time PCR tracks product formation cycle by cycle.

The subject of assay [1] is bone marrow derived macrophages. The experiment in a line: Co-culture of macrophages with tumor cells with or without serum, qPCR. Format: cell-based, mouse. The settings on record: MPL 100 ng/mL. The protocol: For co-culture with tumor cells, bone marrow derived macrophages (harvested from wild type or Fcγ receptor deficient C57BL/6 mice) were plated in 6 well plates (500,000 cells per well) containing Alpha MEM supplemented with 120 ng/mL M-CSF and treated with either 100 ng/ML MPL or PBS control. After 24 hours either B78 melanoma or Myc-CaP cells were added (200,000 cells per well). To test whether serum derived anti-tumor antibodies can activate macrophages, 5 μL of serum obtained from mice bearing B78 tumors rendered disease free was also added to the co-culture. After 24 hours cells were harvested and analyzed for polarization and activation markers using qPCR.
(§1) Cells treated in vitro with MPL, RT, or the combination were washed with cold PBS, TRIzol™ reagent (ThermoFisher Scientific Cat #15596026) was added to the plate, and the cells were collected via scraping over ice. […] Extracted RNA was subjected to complementary cDNA synthesis using QuantiTect Reverse Transcription Kit (QIAGEN, Germany, Cat #205314) according to the manufacturer's instructions. Quantitative polymerase chain reaction (qRT-PCR) was performed using Taqman Fast Advanced qPCR Master Mix. […] For data analysis, the Ct values were exported to an Excel file, and fold change normalized to untreated control samples was calculated using the ΔΔCt method. […]

Assay [2] has as its system CD4 and CD8 T cells. The experiment in a line: CD4 and CD8 T cell monoculture with MPL, qPCR. The settings on record: MPL 5-500 ng/mL, 24 hours. The assay is classed as cell-based, mouse. On the procedure: CD4 and CD8 T cells were isolated from freshly harvested spleens of naïve mice. Spleens were homogenized, filtered (70 μM), and centrifuged. The cell pellet was resuspended in RBC lysis buffer and filtered (70 μM). CD4 and CD8 cells were sorted from total splenocytes using MACS column sorting (Miltenyi Biotec CD8a Cat #130-104-075, CD4 Cat #130-104-454) per manufacturer's instructions.
To determine direct effects of MPL on macrophages, CD4, and CD8 T cells, freshly isolated cells were cultured in 6-well plates containing Alpha MEM media (supplemented with 120 ng/mL M-CSF in the case of macrophages) in the presence of increasing amounts of MPL (5, 20, 100, and 500 ng/mL). […]
as §1

Assay [3] has as its system B78 melanoma. The experiment in a line: B78 melanoma flank tumor model (tumor growth, survival, complete response, rechallenge). The following applies: RT 12 Gy day 1, C4 200 μg IP days 3, 6, 9, MPL 20 μg IT days 5, 7, 9.
Protocol: Tumor bearing mice received either RT (12 Gy, day 1), RT+anti-CTLA4 (C4, day 3, 6, 9), MPL (20 μg IT injection days 5, 7, 9), RT+C4+MPL, or PBS control.
For our studies, tumors were established intradermally in mice, external beam radiation was delivered, PBS or anti-CTLA-4 were injected intraperitoneally, PBS or MPL were injected intratumorally, and tumor growth and overall survival were recorded. Serum was collected and analyzed for the presence and characterization of anti-tumor antibodies, and the tumor and tumor draining lymph node were collected for immune infiltrate analysis. Mice were randomized to experimental groups/treatment the day before treatment initiation. Generally, experimental groups consisted of at least 5-6 mice, but in some experiments up to 10 were used.
Mice were housed and treated under a protocol (protocol number M005670) approved by the Institutional Animal Care and Use Committee (IACUC) at the University of Wisconsin-Madison. Female C57BL/6, FcγR −/− (FcγR deficient C57BL/6.129P2-Fcer1gtm1Rav N12), and male FVBn mice were purchased at age 6 to 8 weeks from Taconic. Female TBET −/− (B6.129S6-Tbx21tm1Glm/J strain #:004648) were purchased from The Jackson Laboratory. […] Tumor size was determined using calipers and volume approximated as (width2×length)/2. […]
In assay [4] the test system is B78 melanoma. The experiment in a line: Tumor cytokine multiplex immunoassay. Format: in vivo, mouse. The settings on record: tumor lysate, day 15. The protocol: At day 15, tumors were harvested and weighed. Tumor samples (5 μL/mg) were lysed in 20% Cell Lysis Buffer with PMSF (Cell Signaling Technology) and supplemented with Halt Protease and Phosphatase Inhibitor Cocktail (Thermo Scientific). Each tumor was homogenized in bead beater tubes, and the lysate was stored at −80° C. The concentration of 32 cytokines and chemokines in the tumor lysates (MILLIPLEX MAP Mouse Cytokine/Chemokine Magnetic Bead Panel, Millipore) were determined by a multiplex immunoassay following manufacturer's instructions. The MAGPIX System (Millipore) was used to read the multiplex plate. Concentrations were determined using a standard curve and their respective median fluorescence intensity (MFI) readings (Milliplex Analyst, Millipore). The data underwent log and […] transformation followed by unbiased hierarchical clustering.
We next profiled the cytokine repertoire within the irradiated tumor immune microenvironment following MPL treatment, focusing on TLR4 activation, Th polarization, and macrophage polarization given our tumor immune cell infiltration findings.

Assay [5] concerns bone marrow derived macrophages. The experiment in a line: Bone marrow derived macrophage monoculture, qPCR of polarization and activation markers. The assay is classed as cell-based, mouse. The following applies: for Arg1 and Nos2 expression: MPL 100 ng/mL. On the procedure: Macrophages were isolated from freshly harvested bone marrow as previously described (95-97). Briefly, isolated tibias were flushed with RMPI media and flowthrough was collected and centrifuged. The cell pellet was resuspended in RBC lysis buffer (Biolegend Cat #420302) and filtered (70 μM). Filtered cells were plated in non-tissue culture treated plates in Minimum Essential Medium Eagle-Alpha Modification (Alpha MEM) with Nucleosides supplemented with 10% FBS and 30 ng/mL M-CSF (Biolegend Cat #576408). After 24 hours, the culture supernatant containing macrophages was harvested and plated in tissue culture treated plates in Alpha MEM supplemented with 10% FBS and 120 ng/mL M-CSF.
To determine direct effects of MPL on macrophages, CD4, and CD8 T cells, freshly isolated cells were cultured in 6-well plates containing Alpha MEM media (supplemented with 120 ng/mL M-CSF in the case of macrophages) in the presence of increasing amounts of MPL (5, 20, 100, and 500 ng/mL). After 24 hours cells were harvested, and RNA was isolated for analysis via qPCR.
Cells treated in vitro with MPL, RT, or the combination were washed with cold PBS, TRIzol™ reagent (ThermoFisher Scientific Cat #15596026) was added to the plate, and the cells were collected via scraping over ice. For analysis of tumor tissue, tumors were harvested, and samples were homogenized in TRIzol using a Bead Mill Homogenizer (Bead Ruptor Elite, Omni International Cat #19-040E). For in vitro and in vivo samples, total RNA was extracted using RNeasy Mini Kit (QIAGEN, Germany, Cat #74106) according to the manufacturer's instructions. Extracted RNA was subjected to complementary cDNA synthesis using QuantiTect Reverse Transcription Kit (QIAGEN, Germany, Cat #205314) according to the manufacturer's instructions. Quantitative polymerase chain reaction (qRT-PCR) was performed using Taqman Fast Advanced qPCR Master Mix. Thermal cycling conditions (Quantstudio 6, Applied Biosystems) included the UDG activation at 50° C. for 2 min, followed by Dual-Lock™ DNA polymerase activation stage at 95SC for 2 m followed by 40 cycles of each PCR step (denaturation) 95° C. for is and (annealing/extension) 60° C. for 20s. A melt curve analysis was done to ensure specificity of the corresponding qRT-PCR reactions. For data analysis, the Ct values were exported to an Excel file, and fold change normalized to untreated control samples was calculated using the ΔΔCt method. Hprt, was used as endogenous controls. A complete list of Taqman probes is included as Table 1.
We cultured bone marrow derived macrophages in the presence of increasing amounts of MPL and using qPCR quantified the expression of Arg1 and Nos2, markers of M2 and M1 macrophages, respectively (59).
Macrophages are one of the least sensitive immune cell populations to radiation induced cell death (62). Tumor-associated macrophage populations that receive radiation in this regimen likely survive and are subsequently exposed to MPL delivered intratumorally as part of our treatment strategy. To test whether RT can synergize with MPL to further increase activation of macrophages, we delivered 12 Gy of RT to macrophages in culture and immediately replaced the growth media with fresh media containing 100 ng/mL of MPL, and 24 hours later harvested cells for analysis.

In assay [6] the test system is CD4 and CD8 T cells. In words: Co-culture of MPL stimulated macrophages with CD4 and/or CD8 T cells, flow cytometry. Format: cell-based, mouse. On the procedure:
Bone marrow derived macrophages were plated in 12 well plates (200,000 cells per well) containing Alpha MEM supplemented with 120 ng/mL M-CSF and treated with either 100 ng/mL MPL or PBS control. After 24 hours either CD4, CD8 or both were added (500,000 cells per well) to the culture. CD4 and CD8 cells were harvested 24 hours later and analyzed for activation markers using flow cytometry.
Flow cytometry was performed as previously described (65), using fluorescent beads (UltraComp Beads eBeads, 176 Invitrogen, #01-2222-42) to determine compensation and fluorescence minus one (FMO) methodology to determine gating. For in vivo analysis, tumors and tumor draining lymph nodes were harvested and gently dissociated. For in vitro analysis, nonadherent CD4 and CD8 cells were collected from culture plates and washed with PBS twice. In either case total cells were treated CD16/32 antibody (BioLegend) to prevent non-specific binding. Live cell staining was performed using Ghost Red Dye 780 (Tonbo Biosciences) according to manufacturer's instruction. After live-dead staining, a single cell suspension was labeled with the surface antibodies at 4° C. for 60 min and washed three times using flow buffer (2% FBS+2 mM EDTA in PBS). For intracellular staining, the cells were fixed and stained for internal markers with permeabilization solution according to manufacturer's instructions (BD Cytofix/Cytoperm™). Flow cytometry was performed using an Attune NxT Flow Cytometer (ThermoFisher). Data was analyzed using FlowJo Software.
We hypothesized that MPL may favorably polarize and activate T cells through direct activation of macrophages. To test this, we co-cultured CD8 cells with macrophages stimulated with MPL or vehicle control (PBS) and quantified CD69 expression as a marker of activation. […] To investigate CD4 polarization we co-cultured CD4 cells with macrophages stimulated with MPL or PBS. […] This may partially explain the loss of CD69 expression in CD8 T cells when CD4 T cells were added to the co-culture. We observed similar trends in CXCR3 and CXCR4 expression on CD4+cells, as well as increase in regulatory T cell percentage when CD8 T cells were added to the co-culture (FIGS. 4M-40).
In general terms: Flow cytometry measures light scatter and fluorescence of single cells or particles in a stream.

The mark [7] stands for this setting: CD4 co-cultured with MPL stimulated macrophages.

Turning to monophosphoryl lipid A [MPL], the B cell activation result in the assay on B cells was “no increase in B cell activation”. In addition, in assay [1] (FcγR −/− macrophages co-cultured with B78 cells), the “Arg1 and Nos2 expression” value is given as “significant increase in expression of Nos2 but not Arg1”. In assay [1] (wild type macrophages co-cultured with B78 cells), the “Arg1 and Nos2 expression” value is recorded as “significant increase in expression of Nos2 but not Arg1”. In the assay on CD4 and CD8 T cells [2], the “Cxcr3 and Cxcr4 expression in naïve splenic CD4 T cells” value is recorded as “minimal changes”; the “expression of pro-inflammatory cytokines in CD4 and CD8 cells” value was “minimal increases”. For the same substance, the median survival in the assay on B78 melanoma [3] is given as 31 days. Also, in the assay on B78 melanoma [4], the “Macrophage Inflammatory Protein 2 (MIP2, CXCL2)” value is recorded as “significant increases” and the “keratinocytes-derived chemokine (KC, CXCL1)” value is listed as “significant increases”. Besides, the Fcγ receptor expression result in assay [5] (12 Gy RT then 100 ng/mL MPL, 24 hours, addition of radiation to the MPL) was “further increased expression of these Fcγ receptors”. The “expression of Ifnβ1 and Nos2” value in assay [5] (12 Gy RT then 100 ng/mL MPL, 24 hours, compared to MPL treatment alone) was “further increased”. The “Arg1 and Nos2 expression” value in assay [5] (FcγR −/− macrophages in monoculture) is “significant increases in Arg1 and Nos2 expression”. Further, in assay [5] (at the 100 and 200 ng/ml doses), the “Nos2 expression relative to Arg1” value is “significantly greater expression of Nos2 than Arg1”. Further, the “Arg1 and Nos2 expression (qPCR)” value in assay [5] (increasing amounts of MPL (5, 20, 100, 500 ng/mL), 24 hours) was “dose dependent increases in both Arg1 and Nos2”. Further, the “pro-inflammatory compared to anti-inflammatory cytokine expression” value in assay [5] (increasing amounts of MPL, 24 hours) was “favoring expression of pro-inflammatory cytokines”. The “Arg1 and Nos2 expression” value in assay [5] (wild type macrophages in monoculture, 24 hours) is “significant increases in Arg1 and Nos2 expression”. In addition, in the assay on CD4 and CD8 T cells [6] (setting [7]), the “CXCR3 expression in CD4 cells” value is on record as “significant increase”, the “CXCR4 expression in CD4 cells” value is reported as “decrease” and the “percentage of regulatory T cells (CD4+CD25+FOXP3+)” value is recorded as “significant increase”. Besides, in the assay on CD4 and CD8 T cells [6] (CD8 co-cultured with macrophages stimulated with 100 ng/mL MPL, vs monoculture or unstimulated macrophages), the “CD69 expression on CD8 T cells” value was “significantly increased”. In the assay with CD4 and CD8 T cells [6] (MPL stimulated macrophages, CD4 cells added to the culture), the “CD69 expression on CD8 cells” value is given as “no longer observed an increase”.
